Source: ChEMBL document CHEMBL1201862, “PubChem BioAssay data set” (2004)
Active and inactive are the calls of the source. Cut-off read from the data, not from the text of the source, for most assays here: actives have a measured EC50 and inactives only a lower limit.

Tests used:
[1] = inhibitors of intracellular T. cruzi replication, confirmation, NIH3T3 host cells, beta-gal luminescence (AID 2044); type: functional, cell-based;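 note: intracellular parasites grown in NIH/3T3 mouse fibroblasts as host cells; luminescent beta-galactosidase reporter signal from transgenic T. cruzi replicating inside host cells; inhibitors lower the luminescence signal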
[2] = cytotoxicity toward NIH3T3 fibroblasts, dose response, counter-screen, cell-based, ATP luminescence, mouse fibroblasts (AID 2010); type: functional;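 note: cells exposed to compound for about 90 hours before reading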
[3] = target: T1, Replicative DNA helicase DnaB (Mycobacterium tuberculosis, UniProt P9WMR3); test: DnaB intein splicing inhibitors, dose response, biochemical, cell-free fluorescence (AID 449749); type: functional
T1 sequence (P9WMR3 whole entry): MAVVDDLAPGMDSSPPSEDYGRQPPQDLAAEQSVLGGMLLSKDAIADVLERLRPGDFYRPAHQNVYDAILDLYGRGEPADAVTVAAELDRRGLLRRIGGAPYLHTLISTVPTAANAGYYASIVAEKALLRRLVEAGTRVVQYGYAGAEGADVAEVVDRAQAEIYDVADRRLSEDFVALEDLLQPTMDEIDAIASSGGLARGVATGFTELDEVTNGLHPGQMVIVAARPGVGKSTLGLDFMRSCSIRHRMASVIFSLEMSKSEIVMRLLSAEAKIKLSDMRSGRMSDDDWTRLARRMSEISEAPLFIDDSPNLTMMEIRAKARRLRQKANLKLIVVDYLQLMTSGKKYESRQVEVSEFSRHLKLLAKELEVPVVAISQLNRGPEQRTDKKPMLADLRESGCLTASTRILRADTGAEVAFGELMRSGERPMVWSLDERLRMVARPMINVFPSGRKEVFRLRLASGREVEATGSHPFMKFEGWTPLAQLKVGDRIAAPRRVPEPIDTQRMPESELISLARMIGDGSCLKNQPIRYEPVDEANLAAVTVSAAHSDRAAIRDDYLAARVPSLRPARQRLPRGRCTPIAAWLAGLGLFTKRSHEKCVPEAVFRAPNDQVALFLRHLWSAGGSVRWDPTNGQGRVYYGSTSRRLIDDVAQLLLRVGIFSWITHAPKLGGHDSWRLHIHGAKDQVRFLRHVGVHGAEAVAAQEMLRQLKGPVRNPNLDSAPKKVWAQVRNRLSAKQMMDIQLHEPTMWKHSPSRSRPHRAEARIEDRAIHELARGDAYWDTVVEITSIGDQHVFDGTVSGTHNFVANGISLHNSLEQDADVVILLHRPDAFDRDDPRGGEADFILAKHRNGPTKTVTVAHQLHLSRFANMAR

Protein RecA = target: T2, Protein RecA (Mycobacterium tuberculosis, UniProt P9WHJ3); test: Fluorescence Cell-Free Homogeneous Dose Retest to Identify Inhibitors of RecA-Intein Splicing Activity. [Related pubchem assays (depositor defined):AID2097, AID2223, AID489010, AID492950]; type: functional
T2 sequence (P9WHJ3 whole entry): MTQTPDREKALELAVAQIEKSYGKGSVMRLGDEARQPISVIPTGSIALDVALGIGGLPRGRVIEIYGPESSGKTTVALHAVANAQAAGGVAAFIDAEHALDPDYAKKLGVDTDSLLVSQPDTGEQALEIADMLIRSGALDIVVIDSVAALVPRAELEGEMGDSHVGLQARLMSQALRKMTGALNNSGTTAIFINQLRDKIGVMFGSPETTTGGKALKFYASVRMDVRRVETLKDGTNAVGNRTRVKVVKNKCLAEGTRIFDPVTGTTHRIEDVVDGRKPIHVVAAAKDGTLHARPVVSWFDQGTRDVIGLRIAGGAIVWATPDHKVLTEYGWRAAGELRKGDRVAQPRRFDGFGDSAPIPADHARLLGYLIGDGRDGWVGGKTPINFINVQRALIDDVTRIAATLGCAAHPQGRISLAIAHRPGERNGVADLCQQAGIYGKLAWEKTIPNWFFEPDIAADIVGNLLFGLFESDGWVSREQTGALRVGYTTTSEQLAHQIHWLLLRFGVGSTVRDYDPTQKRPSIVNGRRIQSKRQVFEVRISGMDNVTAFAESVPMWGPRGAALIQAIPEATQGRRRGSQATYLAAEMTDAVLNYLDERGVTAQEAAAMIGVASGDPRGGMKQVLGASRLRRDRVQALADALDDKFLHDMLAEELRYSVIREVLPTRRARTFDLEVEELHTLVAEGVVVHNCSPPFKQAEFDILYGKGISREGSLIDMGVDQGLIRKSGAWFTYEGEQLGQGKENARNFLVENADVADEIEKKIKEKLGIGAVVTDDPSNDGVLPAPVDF

[4] = HEp-2 cell cytotoxicity, dose response, cytotoxicity control for RSV inhibitor project, HTS (AID 2410); type: functional; conditions: human respiratory syncytial virus
[5] = target: T3, RNA-binding protein pos-1 (Caenorhabditis elegans, UniProt G5EF15); test: inhibitors of POS-1/mex-3 RNA binding, dose response, biochemical, fluorescence polarization (AID 1964);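 note: purified POS-1 fused to maltose binding protein made in E. coli; potency of compounds blocking POS-1 binding to fluorescent RNA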
T3 sequence (G5EF15 whole entry): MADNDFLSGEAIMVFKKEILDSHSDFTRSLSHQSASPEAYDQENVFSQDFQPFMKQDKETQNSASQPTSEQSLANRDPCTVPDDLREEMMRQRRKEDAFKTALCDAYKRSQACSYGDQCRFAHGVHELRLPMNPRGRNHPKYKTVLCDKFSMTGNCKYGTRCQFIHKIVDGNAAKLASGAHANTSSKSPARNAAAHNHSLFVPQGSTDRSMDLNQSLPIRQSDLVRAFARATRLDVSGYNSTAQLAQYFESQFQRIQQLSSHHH

[6] = target: T4, Zinc finger protein mex-5 (Caenorhabditis elegans, UniProt Q9XUB2); test: MEX-5/TCR-2 RNA interaction inhibitors, dose response, biochemical, C. elegans, fluorescence polarization (AID 1960)
T4 sequence (Q9XUB2 whole entry): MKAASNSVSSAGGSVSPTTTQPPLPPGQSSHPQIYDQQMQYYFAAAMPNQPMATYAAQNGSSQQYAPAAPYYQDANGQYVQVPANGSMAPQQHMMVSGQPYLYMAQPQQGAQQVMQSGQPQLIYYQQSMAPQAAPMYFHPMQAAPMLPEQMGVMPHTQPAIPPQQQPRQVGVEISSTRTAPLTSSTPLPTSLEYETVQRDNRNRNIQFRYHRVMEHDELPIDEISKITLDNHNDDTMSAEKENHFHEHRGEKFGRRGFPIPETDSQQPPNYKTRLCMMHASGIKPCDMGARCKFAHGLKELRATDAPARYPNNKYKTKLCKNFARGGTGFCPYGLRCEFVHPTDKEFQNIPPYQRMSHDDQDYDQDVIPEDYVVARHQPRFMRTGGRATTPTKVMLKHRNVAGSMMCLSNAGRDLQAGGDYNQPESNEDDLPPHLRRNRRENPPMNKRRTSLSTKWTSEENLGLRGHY

[7] = target: FAD-linked sulfhydryl oxidase ALR (Homo sapiens, UniProt P55789); test: inhibitors of human ALR sulfhydryl oxidase, dose response, biochemical, H2O2 detection, luminescence, cherry-pick (AID 493248)
FAD-linked sulfhydryl oxidase ALR, sequence (P55789 whole entry): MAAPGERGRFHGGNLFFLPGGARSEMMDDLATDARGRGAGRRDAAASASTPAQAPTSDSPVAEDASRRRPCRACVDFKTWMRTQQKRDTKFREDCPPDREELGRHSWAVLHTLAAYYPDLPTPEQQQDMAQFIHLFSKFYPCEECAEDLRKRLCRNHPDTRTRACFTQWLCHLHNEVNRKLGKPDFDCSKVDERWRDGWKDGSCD

[8] = microbe, parasite or virus in culture; type: functional; conditions: Mycobacterium tuberculosis
[9] = Luminescence Cell-Based Dose Confirmation HTS to Identify Activators of 5'UTR Stem-Loop Driven Alpha-Synuclein mRNA Translation in H4 Neuroglioblastoma Cells. [Related pubchem assays: 1829 (Project Summary), 1814 (Primary HTS)]; type: functional
[10] = Luminescence Cell-Based Dose Response HTS to Identify Activators of Luciferase Translation or Activity in H4 […] Cells. [Related pubchem assays: 1829 (Project Summary), 1814 (Primary HTS)]; type: functional
H4 = test: Luminescence Cell-Based Dose Response HTS to Identify Activators of 5'UTR Stem-Loop Driven Prion Protein mRNA Translation in H4 Neuroglioblastoma Cells. [Related pubchem assays: 1829 (Project Summary), 1814 (Primary HTS)]; type: functional; conditions: Homo sapiens
cells = type: functional
[11] = target: T5, Heat shock factor protein 1 (Mus musculus, UniProt P38532); test: inhibition of MG132-induced HSE-luciferase signal, confirmation, cell-based, NIH3T3, luminescence, dose retest (AID 2382); type: functional;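 note: NIH3T3 fibroblasts with HSF1-driven luciferase reporter stressed by proteasome inhibitor MG132; luminescence from HSF1-driven luciferase expression after 8 hours of MG132 stress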
T5 sequence (P38532 whole entry): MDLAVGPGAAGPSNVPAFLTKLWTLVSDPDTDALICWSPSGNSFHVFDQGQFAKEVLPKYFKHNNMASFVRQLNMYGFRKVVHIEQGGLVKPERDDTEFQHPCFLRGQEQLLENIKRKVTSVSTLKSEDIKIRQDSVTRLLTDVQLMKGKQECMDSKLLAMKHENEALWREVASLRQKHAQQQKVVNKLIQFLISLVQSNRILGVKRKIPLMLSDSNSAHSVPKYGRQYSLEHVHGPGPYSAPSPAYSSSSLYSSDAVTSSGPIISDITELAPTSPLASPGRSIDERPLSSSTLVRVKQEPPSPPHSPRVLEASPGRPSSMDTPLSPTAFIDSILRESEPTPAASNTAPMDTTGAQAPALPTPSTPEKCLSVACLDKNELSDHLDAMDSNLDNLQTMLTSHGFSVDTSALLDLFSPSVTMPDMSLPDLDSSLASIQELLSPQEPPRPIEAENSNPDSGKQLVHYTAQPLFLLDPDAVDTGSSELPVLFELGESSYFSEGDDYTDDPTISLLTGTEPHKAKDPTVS

[12] = target: T6, Polyadenylate-binding protein 1 (Homo sapiens, UniProt P11940); test: PABP1 MLLE–PAM2 interaction inhibitors, dose response, miRNA deadenylation inhibitor project, biochemical, fluorescence polarization, Cy5-PAM2 peptide, secondary (AID 602260); type: functional; conditions: read-out: IC50_Mean
T6 sequence (P11940 whole entry): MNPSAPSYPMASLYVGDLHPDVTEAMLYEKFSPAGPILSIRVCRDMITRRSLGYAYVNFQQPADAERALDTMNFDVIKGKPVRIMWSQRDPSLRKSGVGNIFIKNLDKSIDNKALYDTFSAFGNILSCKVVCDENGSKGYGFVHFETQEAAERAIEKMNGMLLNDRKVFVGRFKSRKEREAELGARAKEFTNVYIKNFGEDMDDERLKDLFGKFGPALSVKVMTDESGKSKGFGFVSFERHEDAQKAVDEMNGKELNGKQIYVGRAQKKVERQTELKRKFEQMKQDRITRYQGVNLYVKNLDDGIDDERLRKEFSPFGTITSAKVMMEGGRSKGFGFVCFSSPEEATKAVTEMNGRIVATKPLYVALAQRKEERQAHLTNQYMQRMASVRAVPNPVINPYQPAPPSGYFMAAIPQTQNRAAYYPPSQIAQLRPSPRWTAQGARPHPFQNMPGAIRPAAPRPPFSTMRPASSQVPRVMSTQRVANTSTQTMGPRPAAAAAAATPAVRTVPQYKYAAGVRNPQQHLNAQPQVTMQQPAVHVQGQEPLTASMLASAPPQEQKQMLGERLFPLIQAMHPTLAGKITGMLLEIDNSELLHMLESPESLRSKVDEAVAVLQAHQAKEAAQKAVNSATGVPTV

[13] = target: T6, Polyadenylate-binding protein 1; test: PABP1 MLLE–PAM2 binding inhibitor potency, dose response, biochemical, fluorescence polarization, FITC-PAM2 peptide (AID 602259); type: functional; conditions: read-out: IC50_Mean

CC(=O)N(C)Cc1ccc(C(=O)CCl)cc1
EC50 [1]: 2.51 µM (active) | EC50 [2]: 3.7 µM (active) | AC50 [3]: 56.2 µM (active) | EC50 (Protein RecA): 19.4 µM (active)

CCN(CC)C(=O)c1ccc2c(c1[N+](=O)[O-])C(=O)c1ccccc1C2=O
AC50 [3]: > 380 µM (inactive) | EC50 (Protein RecA): > 380 µM (inactive)

CCN(CC)CCN(Cc1cc2ccc(C)c(C)c2nc1O)C(S)=NCc1ccco1
CC50 [4]: > 50 µM (active) | EC50 [5]: > 300 µM (not active) | EC50 [6]: > 300 µM (not active)

CCOC(=O)CSc1nnc(NCC(=O)OC(C)C)c(=O)[nH]1
AC50 [3]: 3.45 µM (active) | EC50 (Protein RecA): 9.44 µM (active)

O=C(O)CCc1ccc(-c2ccccc2)n1-c1ccc(C(=O)O)cc1
EC50 [5]: > 300 µM (not active) | EC50 [6]: > 300 µM (not active)

COc1ccc(CCSc2nnc(C3CCCCC3)n2N)cc1
AC50 [7]: 2.81 µM (active)

O=C(Nc1cccc(-c2cn3ccccc3n2)c1)c1ccccc1
AC50 [7]: 2.89 µM (active)

Nc1cc(C(=O)O)ccc1Nc1ccc(F)c(F)c1
AC50 [7]: 0.345 µM (active)

CCc1cc(-c2nnc(S)n2-c2cccc(C)c2)cs1
AC50 [7]: 3.65 µM (active)

O=C(c1cnn2c(C(F)F)cc(-c3ccccc3)nc12)N1CCc2ccccc2C1
CC50 [8]: > 40 µM (active)

CN1C(=O)C(=Cc2cn(CC(=O)N3CCCC3)c3ccccc23)C(=O)N(C)C1=O
EC50 [5]: > 300 µM (not active) | EC50 [6]: > 300 µM (not active)

CCN(CC)C(=O)Cn1cc(C(=O)C(=O)N2CCc3ccccc32)c2ccccc21
EC50 [5]: > 300 µM (not active) | EC50 [6]: > 300 µM (not active)

CN1CCN(Cn2cc(/C=C/C(=O)c3ccccc3)c3ccccc32)CC1
EC50 [9]: 0.233 µM (active) | EC50 [10]: 0.148 µM (active) | EC50 (H4): 18.9 µM (active) | CC50 [8]: > 40 µM (active)

O=C(Nc1cc(Oc2ccccc2)cc([N+](=O)[O-])c1)C12CC3CC(C1)CC(n1cnc(Cl)n1)(C3)C2
EC50 [1]: 1.51 µM (active) | CC50 [8]: > 40 µM (active) | EC50 [2]: > 60 µM (not active)

Sc1nnc(-c2ccc(Cl)cc2)n1-c1ccc(Cl)cc1
AC50 [7]: 4.74 µM (active)

COc1c(/C=C2/C(=O)NC(=O)N(C)C2=O)c(CCN(C)C(=O)c2ccccc2)cc2c1OCO2
EC50 [5]: > 300 µM (not active) | EC50 [6]: > 300 µM (not active)

Cc1noc(C)c1COC(=O)Cc1ccc(Br)cc1
AC50 [3]: 124 µM (active) | EC50 (Protein RecA): > 380 µM (inactive)

Cc1cc(C)n(C(=O)c2ccc([N+](=O)[O-])cc2[N+](=O)[O-])n1
IC50 (cells): 43.6 µM (active)

COc1cccc(NC(=O)c2ccc(Cn3cc([N+](=O)[O-])cn3)o2)c1
IC50 (cells): 18.5 µM (active)

O=C(Oc1ccccc1)c1cccc(COC(=O)c2cnccn2)c1
IC50 (cells): 6.99 µM (active)

COc1ccc(CNC(=O)c2cc3cccc(O)c3oc2=N)cc1
IC50 (cells): 47.8 µM (active)

COC(=O)C1CSc2[nH]c(=O)sc2C1c1ccc(OC)c(OC)c1 (centres undefined)
EC50 [5]: > 300 µM (not active) | EC50 [6]: > 300 µM (not active)

COC(=O)c1nnc(NC(=O)c2ccc(C(C)(C)C)cc2)[nH]1
EC50 [11]: > 195 µM (not active) | AC50 [3]: 3.57 µM (active) | EC50 (Protein RecA): 10.1 µM (active)

CCCCCc1ccc(S(=O)(=O)NCCc2ccncc2)cc1
CC50 [8]: 12.1 µM (active)

CC1(C)Nc2ccccc2N(Cc2ccc([N+](=O)[O-])cc2)C1=O
AC50 [7]: 3.92 µM (active)

CCCOc1ccc(/C=c2\sc3nc(-c4ccco4)nn3c2=O)cc1OCC
EC50 [5]: > 300 µM (not active) | EC50 [6]: > 300 µM (not active)

COc1cc(/C=N/Nc2nc(O)nnc2C)cc([N+](=O)[O-])c1O
EC50 [5]: 7.98 µM (active) | EC50 [6]: 10.8 µM (inconclusive)

CCOC(=O)c1c2ccc(OCC(=O)N/N=C/c3ccc(Cl)cc3)cc2n2ccccc12
EC50 [5]: > 300 µM (not active)

COc1c(O)cccc1[C@H](O)C1CCN(CCc2ccc(F)cc2)CC1
EC50 [5]: 14.4 µM (active) | EC50 [6]: 13.7 µM (active) | IC50 [12]: > 66 µM (inactive) | IC50 [13]: 36.9 µM (inactive)
